According to EP3981864A1, “DETERGENT COMPOSITION” (priority 2020, dated 2022):

Assays:
[1] = target: T1, Oryza sativa αDOX (SEQ ID NO: 1), fatty acid alpha-dioxygenase, Q9M5J1, N-terminal His-tag variant SEQ ID NO: 249 (Oryza sativa subsp. japonica, UniProt Q2QRV3); assay: Alpha-dioxygenase activity assay (oxygen consumption, TON); type: biochemical; conditions: fatty acid 100 µM, enzyme 6 ppm, 50 mM HEPES pH 9.0, 37°C; initial rate of oxygen consumption / enzyme concentration
T1 construct: made in house; host or cells: Escherichia coli BL21 (DE3), pET30a
T1 sequence (Q2QRV3 1-618): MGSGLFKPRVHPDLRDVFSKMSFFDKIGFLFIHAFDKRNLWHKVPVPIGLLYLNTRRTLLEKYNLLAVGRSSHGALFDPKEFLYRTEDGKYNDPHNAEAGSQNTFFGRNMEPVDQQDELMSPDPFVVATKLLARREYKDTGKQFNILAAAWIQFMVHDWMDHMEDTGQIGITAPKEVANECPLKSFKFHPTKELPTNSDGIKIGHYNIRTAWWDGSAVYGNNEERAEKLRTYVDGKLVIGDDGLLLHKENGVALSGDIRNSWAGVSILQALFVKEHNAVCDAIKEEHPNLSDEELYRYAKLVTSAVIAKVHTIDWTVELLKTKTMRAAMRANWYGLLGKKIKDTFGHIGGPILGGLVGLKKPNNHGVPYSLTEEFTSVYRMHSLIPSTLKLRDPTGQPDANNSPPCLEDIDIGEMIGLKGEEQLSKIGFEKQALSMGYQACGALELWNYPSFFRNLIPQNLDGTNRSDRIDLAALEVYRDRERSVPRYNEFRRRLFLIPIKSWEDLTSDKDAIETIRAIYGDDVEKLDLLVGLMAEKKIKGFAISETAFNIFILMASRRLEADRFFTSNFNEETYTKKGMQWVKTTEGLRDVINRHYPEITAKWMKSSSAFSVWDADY
Text: Oryza sativa αDOX (SEQ ID NO: 1) is a fatty acid alpha-dioxygenase that converts fatty acids into the corresponding 2-hydroperoxy fatty acids and is included as an example of the present invention. A codon optimized gene (SEQ ID NO: 248) encoding for an alpha-dioxygenase variant (SEQ ID NO: 249), including an N-terminal amino acid sequence containing a His-tag was designed and synthesized by Genscript. After gene synthesis, the protein was expressed and purified. In brief, the complete synthetic gene sequence was subcloned into a pET30a vector using the NdeI/HindIII cloning sites. For heterologous expression, Escherichia coli BL21 (DE3) cells were transformed with the recombinant plasmid and a single colony was inoculated into LB medium containing kanamycin (50 mg/L). A pre-starter culture was then inoculated into flasks containing Magic Media (Thermo Fisher, Catalog # K6803) supplemented with kanamycin (50 mg/L) and incubated at 16 °C for 72 h. At an OD600nm = 0.5 - 1.0, 5-aminolevulinic acid (final concentration 0.5 mM) was added. Cells were harvested by centrifugation at 5000 rpm and 4°C and the pellet was lysed using a bacterial cell lysis buffer (B-PER - Themo Fisher, Waltham, MA). After centrifugation, the supernatant was collected, and the protein was purified by one-step purification using HisPur™ Ni-NTA Spin Columns (Thermo Scientific, Catalog # 88226) and standard protocols known in the art. The protein was concentrated using a 10 kDa MW cutoff Amicon Ultra centrifugal filter unit (Millipore Sigma, Catalog# UFC901024), followed by desalting using a disposable PD-10 desalting column (GE Healthcare Life Sciences, Catalog# 17085101) and a buffer containing 50 mM Tris-HCl, 500 mM NaCl, and 10% Glycerol at pH 8.0. […]
(§1) Reactions with alpha-dioxygenases were performed as follows. […] The reaction was incubated for up to 10 minutes at 37°C with 200 rpm agitation and the conversion was monitored using an oxygen sensor. The TON (in s-1) were calculated as the ratio between the initial rate of oxygen consumption (in µM/s) and the concentration of enzyme (in µM). […]

[2] = tested on: Mycolicibacterium fortuitum αDOX (SEQ ID NO: 7), fatty acid alpha-dioxygenase, K0VMX8, N-terminal His-tag variant SEQ ID NO: 261; assay: as above; type: biochemical; conditions: fatty acid 100 µM, enzyme 6 ppm, 50 mM HEPES pH 9.0, 37°C; initial rate of oxygen consumption / enzyme concentration
Text: Mycolicibacterium fortuitum αDOX (SEQ ID NO: 7) is a fatty acid alpha-dioxygenase that converts fatty acids into the corresponding 2-hydroperoxy fatty acids and is included as an example of the present invention. A codon optimized gene (SEQ ID NO: 260) encoding for an alpha-dioxygenase variant (SEQ ID NO: 261), including an N-terminal amino acid sequence containing a His-tag was designed and synthesized by Genscript. After gene synthesis, the protein was expressed and purified. In brief, the complete synthetic gene sequence was subcloned into a pET30a vector using the NdeI/HindIII cloning sites. For heterologous expression, Escherichia coli BL21 (DE3) cells were transformed with the recombinant plasmid and a single colony was inoculated into LB medium containing kanamycin (50 mg/L). A pre-starter culture was then inoculated into flasks containing Magic Media (Thermo Fisher, Catalog # K6803) supplemented with kanamycin (50 mg/L) and incubated at 16 °C for 72 h. At an OD600nm = 0.5 - 1.0, 5-aminolevulinic acid (final concentration 0.5 mM) was added. Cells were harvested by centrifugation at 5000 rpm and 4°C and the pellet was lysed using a bacterial cell lysis buffer (B-PER - Themo Fisher, Waltham, MA). After centrifugation, the supernatant was collected, and the protein was purified by one-step purification using HisPur™ Ni-NTA Spin Columns (Thermo Scientific, Catalog # 88226) and standard protocols known in the art. The protein was concentrated using a 10 kDa MW cutoff Amicon Ultra centrifugal filter unit (Millipore Sigma, Catalog# UFC901024), followed by desalting using a disposable PD-10 […], 500 mM NaCl, and 10% Glycerol at pH 8.0. The purified enzyme was stored at -80 °C until use.
as §1

Structure (SMILES): CCCCCCCC/C=C\CCCCCCCC(=O)O [Oleic Acid]
- Oleic Acid, TON [1]: 5.54 s⁻¹
- Oleic Acid, TON [2]: 0.00 s⁻¹

Structure (SMILES): CCCCCCCCCCCCCCCC(=O)O [Palmitic Acid]
- Palmitic Acid, TON [1]: 20.58 s⁻¹
- Palmitic Acid, TON [2]: 0.00 s⁻¹

Structure (SMILES): CCCCCCCCCCCCCCCCCC(=O)O [Stearic Acid]
- Stearic Acid, TON [1]: 8.02 s⁻¹
- Stearic Acid, TON [2]: 1.66 s⁻¹
